Measurements reported in publication PMC12396409, “Screening and hit evaluation of a microbial metabolite library against the pathogenic Plasmodium falciparum and Toxoplasma gondii parasites” (International Journal for Parasitology: Drugs and Drug …, 2025).
Read-outs that look alike come from different tables or passages of the source.

Experiments:
[1] = system: T. gondii RH strain (RH-Tub-eYFP) tachyzoites; experiment: microbe, parasite or virus in culture; format: cell-based, Toxoplasma gondii; conditions: 72 h; for percent parasite growth at 2 µg/mL: Toxoplasma gondii
[2] = system: P. falciparum 3D7 parasites; experiment: P. falciparum growth inhibition assay, 1-cycle (72 h treatment), SYBR DNA staining (library screen at 2 μg/mL and dose-response); format: cell-based, Plasmodium falciparum
[3] = system: P. falciparum 3D7 parasites; experiment: P. falciparum growth inhibition assay, 2-cycle (120 h treatment), delayed-death screen and dose-response; format: cell-based, Plasmodium falciparum
[4] = T. gondii, screen at 2 μg/mL, replicate 1
[5] = T. gondii, screen at 2 μg/mL, replicate 2
[6] = P. falciparum, 72 h, screen at 2 μg/mL, replicate 1
[7] = P. falciparum, 72 h, screen at 2 μg/mL, replicate 2
[8] = P. falciparum, 120 h, screen at 2 μg/mL, replicate 1
[9] = P. falciparum, 120 h, screen at 2 μg/mL, replicate 2
[10] = T. gondii, screen at 2 μg/mL, replicate 1, read-out: Tg_72h_%Growth_Rep1
[11] = T. gondii, screen at 2 μg/mL, replicate 2, read-out: Tg_72h_%Growth_Rep2
[12] = Plasmodium falciparum, 3D7, P. falciparum, 72 h, screen at 2 μg/mL, replicate 1, read-out: Pf_72h_%Growth_Rep1
[13] = Plasmodium falciparum, 3D7, P. falciparum, 72 h, screen at 2 μg/mL, replicate 2, read-out: Pf_72h_%Growth_Rep2
[14] = Plasmodium falciparum, 3D7, P. falciparum, 120 h, screen at 2 μg/mL, replicate 1, read-out: Pf_120h_%Growth_Rep1
[15] = Plasmodium falciparum, 3D7, P. falciparum, 120 h, screen at 2 μg/mL, replicate 2, read-out: Pf_120h_%Growth_Rep2
[16] = library screen at 2 μg/mL, % growth, replicate 1, read-out: Tg_72h_%Growth_Rep1
[17] = library screen at 2 μg/mL, % growth, replicate 2, read-out: Tg_72h_%Growth_Rep2
[18] = Plasmodium falciparum, 3D7, library screen at 2 μg/mL, 72 h, % growth, replicate 1, read-out: Pf_72h_%Growth_Rep1
[19] = Plasmodium falciparum, 3D7, library screen at 2 μg/mL, 72 h, % growth, replicate 2, read-out: Pf_72h_%Growth_Rep2
[20] = Plasmodium falciparum, 3D7, library screen at 2 μg/mL, 120 h, % growth, replicate 1, read-out: Pf_120h_%Growth_Rep1
[21] = Plasmodium falciparum, 3D7, library screen at 2 μg/mL, 120 h, % growth, replicate 2, read-out: Pf_120h_%Growth_Rep2

For Albofungin, the Tg_72h_%Growth_Rep1 ([1]; library screen at 2 μg/mL, % growth, replicate 1) was -0.16%, the Tg_72h_%Growth_Rep2 ([1]; library screen at 2 μg/mL, % growth, replicate 2) was 2.30% and the Pf_72h_%Growth_Rep1 ([2]; library screen at 2 μg/mL, 72 h, % growth, replicate 1) was 6.93%. The Pf_72h_%Growth_Rep2 ([2]; library screen at 2 μg/mL, 72 h, % growth, replicate 2) was 9.97%, the Pf_120h_%Growth_Rep1 ([3]; library screen at 2 μg/mL, 120 h, % growth, replicate 1) was -0.91% and the Pf_120h_%Growth_Rep2 ([3]; library screen at 2 μg/mL, 120 h, % growth, replicate 2) was 21.65%.
Molecule `C=CC(C)(C)c1[nH]c2ccccc2c1C[C@@H]1NC(=O)[C@@H]2CCCN2C1=O` [Deoxybrevianamide E] has a Tg_72h_%Growth_Rep1 [1, 4] of 164.73%, a Tg_72h_%Growth_Rep2 [1, 5] of 103.33% and a Pf_72h_%Growth_Rep1 [2, 6] of 84.72%. It also gave a Pf_72h_%Growth_Rep2 [2, 7] of 85.50%, a Pf_120h_%Growth_Rep1 [3, 8] of 100.44% and a Pf_120h_%Growth_Rep2 [3, 9] of 95.74%.
With `CCCCCCCCCC(=O)N[C@@H](Cc1c[nH]c2ccccc12)C(=O)N[C@H](CC(N)=O)C(=O)N[C@@H](CC(=O)O)C(=O)N[C@@H]1C(=O)NCC(=O)N[C@@H](CCCN)C(=O)N[C@@H](CC(=O)O)C(=O)N[C@H](C)C(=O)N[C@@H](CC(=O)O)C(=O)NCC(=O)N[C@H](CO)C(=O)N[C@@H]([C@H](C)CC(=O)O)C(=O)N[C@@H](CC(=O)c2ccccc2N)C(=O)O[C@@H]1C` [Daptomycin] the percent parasite growth at 2 µg/mL [1, 10] was 132%, the percent parasite growth at 2 µg/mL [1, 11] was 90.1% and the activity at 2 µg/mL [2, 12] was 88.5%. For the same molecule, the activity at 2 µg/mL [2, 13] was 114%, the activity at 2 µg/mL [3, 14] was 90.7% and the activity at 2 µg/mL [3, 15] was 116%.
Molecule `O=C(O)[C@H]1/C(=C/CO)O[C@@H]2CC(=O)N21` [Clavulanate potassium] has a percent parasite growth at 2 µg/mL [1, 10] of 102%, a percent parasite growth at 2 µg/mL [1, 11] of 102% and an activity at 2 µg/mL [2, 12] of 85.1%. It also gave an activity at 2 µg/mL [2, 13] of 88.1%, an activity at 2 µg/mL [3, 14] of 88.4% and an activity at 2 µg/mL [3, 15] of 86.6%.
`CC[C@]1(C)C[C@@H](OC(=O)CSc2nnc(N)[nH]2)[C@]2(C)[C@H](C)CC[C@]3(CCC(=O)[C@H]32)[C@@H](C)[C@@H]1O` [Azamulin] was tested, and the percent parasite growth at 2 µg/mL [1, 16] was 65.2%, the percent parasite growth at 2 µg/mL [1, 17] was 70.7% and the “Screen (T. gondii)” value ([1]; library screen at 2 μg/mL, RH strain) was “I”. The activity at 2 µg/mL ([2]; Plasmodium falciparum, 3D7; P. falciparum, 2 μg/mL, 72 h; read-out: 1) Growth (%) at 72 h) was 61.2%, the activity at 2 µg/mL [2, 18] was 59.3% and the activity at 2 µg/mL [2, 19] was 63.1%. For the same molecule, the “delayed-death activity in the 120 h screen against P. falciparum” value ([3]; 2 μg/mL, criteria: ≥40 % growth at 72 h, ≤20 % growth at 120 h, at least 5-fold) was “delayed-death activity”, the “3) Fold change (72 h/120 h)” value ([3]; P. falciparum, growth at 72 h / growth at 120 h, 2 μg/mL) was 6.9 and the activity at 2 µg/mL ([3]; Plasmodium falciparum, 3D7; P. falciparum, 2 μg/mL, 120 h; read-out: 2) Growth (%) at 120 h) was 8.89%. For the same molecule, the activity at 2 µg/mL [3, 20] was 15.6% and the activity at 2 µg/mL [3, 21] was 2.17%.
With `CCC1C=C(C)CC(C)CC(OC)C2OC(O)(C(=O)C(=O)N3CCCCC3C(=O)OC(C(C)=CC3CCC(Cl)C(OC)C3)C(C)C(O)CC1=O)C(C)CC2OC` (centres unmarked) [BIA-P1385] the Tg_72h_%Growth_Rep1 ([1]; T. gondii, parasite screen at 2 μg/mL, % growth, replicate 1) was 65.99%, the Tg_72h_%Growth_Rep2 ([1]; T. gondii, parasite screen at 2 μg/mL, % growth, replicate 2) was 84.21% and the Pf_72h_%Growth_Rep1 ([2]; P. falciparum 3D7, 72 h, parasite screen at 2 μg/mL, % growth, replicate 1) was 6.43%. The Pf_72h_%Growth_Rep2 ([2]; P. falciparum 3D7, 72 h, parasite screen at 2 μg/mL, % growth, replicate 2) was 7.66%, the Pf_120h_%Growth_Rep1 ([3]; P. falciparum 3D7, 120 h, parasite screen at 2 μg/mL, % growth, replicate 1) was 11.40% and the Pf_120h_%Growth_Rep2 ([3]; P. falciparum 3D7, 120 h, parasite screen at 2 μg/mL, % growth, replicate 2) was 13.77%.
Work on `CCCCCCCCCCCCCCCC(=O)NC1CCOC1=O` (centres unmarked) [BIA-H1500] yielded a Tg_72h_%Growth_Rep1 ([1]; T. gondii RH, library screen at 2 μg/mL, % growth, replicate 1) of 108.53%, a Tg_72h_%Growth_Rep2 ([1]; T. gondii RH, library screen at 2 μg/mL, % growth, replicate 2) of 91.16% and a Pf_72h_%Growth_Rep1 ([2]; P. falciparum 3D7, 72 h, library screen at 2 μg/mL, % growth, replicate 1) of 91.73%. The Pf_72h_%Growth_Rep2 ([2]; P. falciparum 3D7, 72 h, library screen at 2 μg/mL, % growth, replicate 2) was 78.97%, the Pf_120h_%Growth_Rep1 ([3]; P. falciparum 3D7, 120 h, library screen at 2 μg/mL, % growth, replicate 1) was 95.21% and the Pf_120h_%Growth_Rep2 ([3]; P. falciparum 3D7, 120 h, library screen at 2 μg/mL, % growth, replicate 2) was 120.58%.
Work on `CCC(=O)N[C@H](COC(C)=O)[C@H](O)c1ccc([N+](=O)[O-])cc1` [Corynecin V] yielded a Tg_72h_%Growth_Rep1 [1, 4] of 157.61%, a Tg_72h_%Growth_Rep2 [1, 5] of 102.11% and a Pf_72h_%Growth_Rep1 [2, 6] of 87.31%. It also gave a Pf_72h_%Growth_Rep2 [2, 7] of 90.66%, a Pf_120h_%Growth_Rep1 [3, 8] of 81.24% and a Pf_120h_%Growth_Rep2 [3, 9] of 97.66%.
Molecule `C=C(C)[C@@H]1CC[C@]2(C(=O)O)CC[C@]3(C)[C@H](CC[C@@H]4[C@@]5(C)CC[C@H](O)C(C)(C)[C@@H]5CC[C@]43C)[C@@H]12` [Betulinic acid] has a percent parasite growth at 2 µg/mL [1, 16] of 107%, a percent parasite growth at 2 µg/mL [1, 17] of 88% and an activity at 2 µg/mL [2, 18] of 73.8%. For the same molecule, the activity at 2 µg/mL [2, 19] was 76.9%, the activity at 2 µg/mL [3, 20] was 70.3% and the activity at 2 µg/mL [3, 21] was 59.9%.
